Data: PubChem BioAssay (NCI)
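Growth conditions: 96-well plates. Treatment: test compound, 48 hours, 5 concentrations. Analysis: linear interpolation between bracketing concentrations; unreached endpoints set to highest concentration. Abbreviation: GI50, concentration required for 50% inhibition of growth. TGI: concentration producing complete growth inhibition.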

Columns and labels:
Test in all cases: DTP human tumour cell line panel, 48 h
COLO 205 colon = system: COLO 205 colon
HCT-116 colon = system: HCT-116 colon
HT29 colon = system: HT29 colon
K-562 leukemia = system: K-562 leukemia
NCI-H23 lung = system: NCI-H23 lung
RXF 393 renal = system: RXF 393 renal
SF-268 CNS = system: SF-268 CNS
SF-295 CNS = system: SF-295 CNS
U251 CNS = system: U251 CNS
SNB-75 CNS = system: SNB-75 CNS

Row | SMILES | TGI (COLO 205 colon) | TGI (HCT-116 colon) | TGI (HT29 colon) | TGI (K-562 leukemia) | TGI (NCI-H23 lung) | TGI (RXF 393 renal) | TGI (SF-268 CNS) | TGI (SF-295 CNS) | TGI (U251 CNS) | TGI (SNB-75 CNS) | GI50 (COLO 205 colon) | GI50 (HCT-116 colon) | GI50 (HT29 colon) | GI50 (K-562 leukemia) | GI50 (NCI-H23 lung) | GI50 (RXF 393 renal) | GI50 (SF-268 CNS) | GI50 (SF-295 CNS) | GI50 (SNB-75 CNS) | GI50 (U251 CNS)
1 | CCOc1ccc2c(c1)NC(=O)C(C1OC(c3ccccc3)=CC1=O)S2 (stereo not given) | 28.1 µM | 88.2 µM | 39.6 µM | 68.7 µM | 94.2 µM | 42.8 µM | 63.1 µM | 83.5 µM | 49.2 µM |  |  |  |  |  |  |  |  |  |  | 
2 | C[n+]1c(-c2ccc(/C=N\NC(=O)c3ccc(C(=O)N/N=C/c4ccc(-c5cn6ccsc6[n+]5C)cc4)cc3)cc2)cn2ccsc21 | 54.3 µM |  | 36 µM | > 100 µM | 50.9 µM | 53.5 µM |  |  | 48.9 µM | 46.7 µM |  |  |  |  |  |  |  |  |  | 
3 | CCOc1cc(NC(C)=O)ccc1C(=O)NN1C(=O)CSC1c1ccc(O)c(OC)c1 (stereo not given) | > 100 µM | > 100 µM | > 100 µM | > 100 µM | > 100 µM | > 100 µM | > 100 µM | > 100 µM |  | > 100 µM |  |  |  |  |  |  |  |  |  | 
4 | O=C(CCO)OCCCCCC/C=C\CCCCCC/C=C\CCCCCCCCOC(=O)CCO | > 100 µM | 29.9 µM | 31.5 µM | 30.4 µM | 31.8 µM | 35 µM | 32.5 µM | 35.5 µM | 30.3 µM | 34 µM |  |  |  |  |  |  |  |  |  | 
5 | OC1(c2ccc3ccccc3c2)c2ccc3ccccc3c2C2=NCCN21 (stereo not given) | > 100 µM | > 100 µM | > 100 µM | > 100 µM | > 100 µM | 98.5 µM | > 100 µM | > 100 µM | > 100 µM | 46.9 µM |  |  |  |  |  |  |  |  |  | 
6 | Cc1ccc(S(=O)(=O)NCCSS(=O)(=O)c2ccc(C)cc2)cc1 | > 100 µM | 28.3 µM | 53.4 µM | > 100 µM | > 100 µM | 99.3 µM | 46.3 µM | > 100 µM | 53.8 µM | 77.2 µM |  |  |  |  |  |  |  |  |  | 
7 | CCCc1ccc(OCC(=O)N/N=C/c2c(-c3ccccc3)[nH]c3ccccc23)cc1 | 14.3 µM | 27.7 µM | 29.8 µM | 23.1 µM | 38.2 µM | 28.8 µM | > 100 µM | 34.4 µM | 20.3 µM | 58.6 µM |  |  |  |  |  |  |  |  |  | 
8 | CS(=O)(=O)OCc1c(O)c2c(c(O)c1COS(C)(=O)=O)C(=O)C=CC2=O | > 100 µM | > 100 µM | > 100 µM | > 100 µM | > 100 µM |  | > 100 µM | > 100 µM | > 100 µM | > 100 µM |  |  |  |  |  |  |  |  |  | 
9 | CCCC(=O)OCC(O)CO (stereo not given) | > 5000 µM | > 5000 µM | > 5000 µM | > 5000 µM | > 5000 µM | > 5000 µM | > 5000 µM | > 5000 µM | > 5000 µM | > 5000 µM |  |  |  |  |  |  |  |  |  | 
10 | NC(N)=N/N=C/c1ccc(O)c(C(=O)O)c1 | > 100 µM | > 100 µM | > 100 µM | > 100 µM | > 100 µM | > 100 µM | > 100 µM | > 100 µM | > 100 µM | > 100 µM |  |  |  |  |  |  |  |  |  | 
11 | Oc1ccc2ccccc2c1Cc1c(O)ccc2ccccc12 | 36.5 µM | 34.4 µM | 46.5 µM | 32.8 µM | 37.8 µM | 36 µM | 31.1 µM | 37.1 µM | 34.4 µM | 42.2 µM |  |  |  |  |  |  |  |  |  | 
12 | NC1=NS(=O)(=O)Nc2nc(-c3cccs3)[nH]c21 | > 100 µM | > 100 µM | > 100 µM | > 100 µM | > 100 µM | > 100 µM | > 100 µM | > 100 µM | > 100 µM | > 100 µM |  |  |  |  |  |  |  |  |  | 
13 | COc1ccc(-n2cc(-c3ccc(OC)c(OC)c3)nc2SCc2ccccc2)cc1Cl | 45.4 µM | > 100 µM | > 100 µM | 39.3 µM | > 100 µM | 82 µM | > 100 µM | > 100 µM | > 100 µM | > 100 µM | 19 µM | 9.43 µM | 17 µM | 9.05 µM | 22.7 µM | 16.9 µM | 30.4 µM | 17.4 µM | 27.4 µM | 22.4 µM
14 | C[C@]12CC[C@H](O)CC1=CC[C@@H]1[C@@H]2CC[C@]2(C)C(=O)CC[C@@H]12 | > 100 µM | > 100 µM | > 100 µM |  | > 100 µM | > 100 µM | > 100 µM | > 100 µM | > 100 µM | > 100 µM |  |  |  |  |  |  |  |  |  | 
15 | C=CCC1=CC2(OC)C(=O)C(OC)(OC)C1C1C(OC)(OC)C(=O)C(OC)=CC12CC=C (stereo not given) | > 100 µM | > 100 µM | > 100 µM | > 100 µM | > 100 µM | > 100 µM | > 100 µM | > 100 µM | > 100 µM | > 100 µM |  |  |  |  |  |  |  |  |  | 
16 | FC(F)(F)C1=NC(=NNc2nnc(-c3ccccc3)c(-c3ccccc3)n2)N=C(C(F)(F)F)C1 | 61.4 µM | > 93.6 µM | > 100 µM | > 100 µM | > 100 µM | > 100 µM | > 100 µM | > 100 µM | > 86.3 µM | > 100 µM |  |  |  |  |  |  |  |  |  | 
17 | CCCCOc1ccc(S(=O)(=O)/N=C(\NN)Nc2ccc(Cl)cc2)cc1 | 38.5 µM | 42.9 µM | 48.9 µM | > 100 µM | > 100 µM | 36.2 µM | 33 µM | 67.7 µM | 30.2 µM | 27 µM |  |  |  |  |  |  |  |  |  | 
18 | ClCC1(CCl)COC1 | > 100 µM | > 100 µM | > 100 µM | > 100 µM | > 100 µM | > 100 µM | > 100 µM | > 100 µM | > 100 µM | > 100 µM |  |  |  |  |  |  |  |  |  | 
19 | O=c1cc(-c2nc3ccccc3[nH]2)[nH]c2nc(-c3nc4ccccc4[nH]3)cc(-c3ccc(Cl)cc3)c12 | 24.6 µM | 35.2 µM | 42.5 µM | 68.8 µM | > 100 µM | 35.8 µM | 47.5 µM | 48.2 µM | 40 µM |  |  |  |  |  |  |  |  |  |  | 
20 | CC[N+](CC)(CC)/C(=N/S(=O)(=O)c1cc(C)c(Cl)cc1S)[N-]S(=O)(=O)c1ccc(Cl)cc1 |  | 65.6 µM | > 100 µM | > 100 µM | > 100 µM | > 100 µM | > 100 µM | > 100 µM | > 100 µM |  |  |  |  |  |  |  |  |  |  | 
21 | Cc1onc(-c2c(F)cccc2Cl)c1C(=O)N[C@@H]1C(=O)N2[C@@H]1SC(C)(C)[C@@H]2C(=O)O | > 100 µM | > 100 µM | > 100 µM | > 100 µM | > 100 µM | > 100 µM | > 100 µM | > 100 µM | > 100 µM | > 100 µM |  |  |  |  |  |  |  |  |  | 
22 | Cc1cc(-c2nc3cc(F)ccc3s2)ccc1NC(=O)C(C)N (stereo not given) | 13.6 µM | 6.57 µM | 8.04 µM | 14.5 µM | 6.24 µM | 8.33 µM | 9.5 µM | 7.94 µM | 9.42 µM | 10.6 µM |  |  |  |  |  |  |  |  |  | 
23 | COc1cc(NCc2ccc3n2-c2ccccc2OC3)cc(OC)c1OC | 25.5 µM | > 100 µM | > 100 µM | 27.6 µM | > 100 µM | 87.5 µM | > 100 µM | 63.9 µM | > 100 µM | 62.4 µM |  |  |  |  |  |  |  |  |  | 
24 | COc1c2ccoc2c(S(=O)(=O)Nc2ccc(Cl)cc2)c2oc(C)cc(=O)c12 | > 100 µM | > 89.2 µM | > 100 µM | > 100 µM | > 100 µM | > 89.1 µM | > 100 µM | > 100 µM | > 100 µM | 76.4 µM |  |  |  |  |  |  |  |  |  | 
